Measured values: PubChem BioAssay (NCI)
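Tested at 5 concentrations; 48 h exposure; 96-well plates; endpoints linearly interpolated, else capped at highest concentration. Definition used: TGI = concentration required for complete inhibition of growth.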

Columns and labels:
Assay in all cases: inhibition of tumour cell growth, NCI panel, 48 h
786-0 renal = tested on: 786-0 renal
CAKI-1 renal = tested on: CAKI-1 renal
CCRF-CEM leukemia = tested on: CCRF-CEM leukemia
DMS 114 small cell lung = tested on: DMS 114 small cell lung
EKVX NSCLC = tested on: EKVX NSCLC
HT29 colon = tested on: HT29 colon
IGROV1 ovarian = tested on: IGROV1 ovarian
LOX IMVI melanoma = tested on: LOX IMVI melanoma
MALME-3M melanoma = tested on: MALME-3M melanoma
NCI-H23 lung = tested on: NCI-H23 lung
OVCAR-5 ovarian = tested on: OVCAR-5 ovarian
OVCAR-8 ovarian = tested on: OVCAR-8 ovarian
RXF 393 renal = tested on: RXF 393 renal
SK-OV-3 ovarian = tested on: SK-OV-3 ovarian
SNB-19 CNS = tested on: SNB-19 CNS
UACC-62 melanoma = tested on: UACC-62 melanoma

`O=[N+]([O-])c1ccc(COc2cccc3cccnc23)cc1` showed a TGI (786-0 renal) of 90.6 µM, a TGI (CAKI-1 renal) of 75 µM and a TGI (CCRF-CEM leukemia) of 23.7 µM. For the same compound, the TGI (DMS 114 small cell lung) was 6.92 µM, the TGI (EKVX NSCLC) was 70.3 µM and the TGI (HT29 colon) was > 100 µM. The TGI (IGROV1 ovarian) was 67.7 µM, the TGI (LOX IMVI melanoma) was 29.2 µM and the TGI (MALME-3M melanoma) was > 100 µM. For the same compound, the TGI (NCI-H23 lung) was > 100 µM, the TGI (OVCAR-5 ovarian) was > 100 µM and the TGI (OVCAR-8 ovarian) was > 100 µM. The TGI (RXF 393 renal) was > 100 µM, the TGI (SK-OV-3 ovarian) was > 100 µM and the TGI (SNB-19 CNS) was > 100 µM. For the same compound, the TGI (UACC-62 melanoma) was 45.2 µM.
In the case of `COC1=CC(=O)NCCN1`, the TGI (786-0 renal) was > 100 µM, the TGI (CAKI-1 renal) was > 100 µM and the TGI (CCRF-CEM leukemia) was > 100 µM. For the same compound, the TGI (DMS 114 small cell lung) was > 100 µM, the TGI (EKVX NSCLC) was > 100 µM and the TGI (HT29 colon) was > 100 µM. The TGI (IGROV1 ovarian) was > 100 µM, the TGI (LOX IMVI melanoma) was 45.2 µM and the TGI (MALME-3M melanoma) was > 100 µM. The TGI (NCI-H23 lung) was > 100 µM, the TGI (OVCAR-5 ovarian) was > 100 µM and the TGI (OVCAR-8 ovarian) was > 100 µM. The TGI (RXF 393 renal) was > 100 µM, the TGI (SK-OV-3 ovarian) was > 100 µM and the TGI (SNB-19 CNS) was > 100 µM. The TGI (UACC-62 melanoma) was > 100 µM.
